This passage reports GI50 and TGI results from PubChem BioAssay (NCI).

Several values for one entry are separate records, joined by “and”; a condition that tells them apart may be missing. Equal values may be shown once.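 Each compound was tested at five concentrations against cells in 96-well plates for 48 hours. GI50 is the concentration that inhibits growth by half. Definition used: TGI = concentration required for complete inhibition of growth.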 Bounds are passed on as bounds.

Test systems include T-47D breast; OVCAR-5 ovarian; SNB-19 CNS; HCC-2998 colon; NCI/ADR-RES ovarian; CAKI-1 renal; SF-539 CNS; HCT-116 colon; EKVX NSCLC; SK-MEL-2 melanoma.
Common to all, as to assay: NCI tumour cell line growth inhibition, 48 h

As for `Clc1nc(Cl)c2ncn(CC3(Cn4cnc5c(Cl)nc(Cl)nc54)COC3)c2n1`, the GI50 in the assay with T-47D breast was 0.179 µM; in the assay on OVCAR-5 ovarian, 0.634 µM; in the assay with SNB-19 CNS, 0.332 µM; in the assay on HCC-2998 colon it was 0.221 µM; in the assay with NCI/ADR-RES ovarian, 0.257 µM; with CAKI-1 renal, 0.195 µM. Also, the values for the GI50 in the assay with SF-539 CNS, in the assay on HCT-116 colon and in the assay on EKVX NSCLC were 1.24 µM, 0.182 µM and 0.821 µM, respectively. Also, the TGI turned out to be 0.391 µM in the assay on T-47D breast; 1.2 µM in the assay on OVCAR-5 ovarian; 0.803 µM with SNB-19 CNS; 0.389 µM with HCC-2998 colon; 0.573 µM with NCI/ADR-RES ovarian; 0.496 µM in the assay with CAKI-1 renal. Also, the TGI in the assay on SF-539 CNS is 2.55 µM; with HCT-116 colon it was 0.35 µM; with EKVX NSCLC, 2.43 µM.
With `CCOC(=O)c1c(C)nc2c(c1N)CC(=O)N2Cc1ccc(OC)cc1`, the GI50 in the assay on T-47D breast was 25.9 µM; in the assay with OVCAR-5 ovarian, greater than 100 µM; in the assay with SNB-19 CNS, 4.87 µM; with HCC-2998 colon, greater than 100 µM; in the assay on SK-MEL-2 melanoma, 36.1 µM; with NCI/ADR-RES ovarian, 4.96 µM. In addition, the GI50 in the assay with CAKI-1 renal was greater than 100 µM; in the assay with SF-539 CNS, 7.03 µM; in the assay on EKVX NSCLC it was 7.91 µM. Also, the TGI in the assay with T-47D breast, in the assay on OVCAR-5 ovarian, in the assay with SNB-19 CNS, in the assay on HCC-2998 colon, in the assay with SK-MEL-2 melanoma and in the assay with NCI/ADR-RES ovarian was greater than 100 µM each time. The TGI with CAKI-1 renal, in the assay on SF-539 CNS and with EKVX NSCLC was greater than 100 µM throughout.
Consider `COC(=O)c1ccc(-c2nc3cc(Cl)c(Cl)cc3nc2C#N)cc1`, for which the GI50 with T-47D breast, in the assay with SNB-19 CNS, with HCC-2998 colon, in the assay with SK-MEL-2 melanoma, with NCI/ADR-RES ovarian and in the assay on CAKI-1 renal was greater than 100 µM each time. Moreover, the GI50 in the assay with SF-539 CNS, in the assay on HCT-116 colon and in the assay with EKVX NSCLC was greater than 100 µM in each case. The TGI in the assay on T-47D breast, with SNB-19 CNS, in the assay on HCC-2998 colon, in the assay on SK-MEL-2 melanoma, in the assay with NCI/ADR-RES ovarian and in the assay on CAKI-1 renal was greater than 100 µM each time. The TGI in the assay on SF-539 CNS, in the assay with HCT-116 colon and with EKVX NSCLC was greater than 100 µM throughout.
`CCOC(=O)/C(C=Nc1ccc(-c2nc3ccccc3[nH]2)cc1)=C(/C)O`: the GI50 with T-47D breast was 10.3 µM; in the assay on OVCAR-5 ovarian it was 17.1 µM; with SNB-19 CNS, 32.7 µM; in the assay with SK-MEL-2 melanoma, 9.14 µM; in the assay on NCI/ADR-RES ovarian it was 13 µM; in the assay with CAKI-1 renal, 17.6 µM. The results for the GI50 with HCT-116 colon and in the assay on EKVX NSCLC were 7.82 µM and 11.9 µM, respectively. The TGI in the assay on T-47D breast was 35.4 µM; with OVCAR-5 ovarian, 36.3 µM; in the assay with SNB-19 CNS, greater than 50 µM; in the assay on SK-MEL-2 melanoma, 22.6 µM; in the assay with NCI/ADR-RES ovarian, 32.2 µM; in the assay on CAKI-1 renal it was greater than 50 µM. For the same compound, the TGI in the assay with HCT-116 colon was 14.5 µM; in the assay with EKVX NSCLC, 38.9 µM.
With `O=c1[nH]nnc2c1ncn2C1OC(CO)C(O)C1O` (configuration not stated), the GI50 was 38.8 µM in the assay with T-47D breast; 74.9 µM in the assay with OVCAR-5 ovarian; greater than 100 µM with SNB-19 CNS; 4.12 µM in the assay with HCC-2998 colon; 0.707 µM with SK-MEL-2 melanoma; 7.74 µM in the assay on NCI/ADR-RES ovarian. The GI50 is 0.998 µM in the assay with CAKI-1 renal, 14.5 µM in the assay with SF-539 CNS and 7.59 µM in the assay with HCT-116 colon. The TGI is greater than 100 µM with T-47D breast; greater than 100 µM in the assay with OVCAR-5 ovarian; greater than 100 µM with SNB-19 CNS; greater than 100 µM in the assay on HCC-2998 colon; 12.2 µM in the assay with SK-MEL-2 melanoma; greater than 100 µM in the assay with NCI/ADR-RES ovarian. For the same compound, the TGI with CAKI-1 renal is 32.5 µM; in the assay with SF-539 CNS, greater than 100 µM; in the assay with HCT-116 colon, greater than 100 µM.
For `Cc1c[n+](=O)c2ccccc2n1[O-]`, the TGI with T-47D breast, with OVCAR-5 ovarian, with SNB-19 CNS, with SK-MEL-2 melanoma, in the assay on NCI/ADR-RES ovarian and with CAKI-1 renal was greater than 100 µM in each case. Moreover, the TGI in the assay on SF-539 CNS, with HCT-116 colon and in the assay with EKVX NSCLC was greater than 100 µM in each case.
With `C=C(C)C(O)CCC1(C)C=Cc2c(c(C)cc3c2[nH]c2ccccc23)O1` (configuration not stated), the TGI was 21.5 µM in the assay with T-47D breast; 8.96 µM and 6.03 µM with OVCAR-5 ovarian; 25 µM and 23.6 µM in the assay on SNB-19 CNS; 12.1 µM and 5 µM with HCC-2998 colon; 8.32 µM in the assay with SK-MEL-2 melanoma; 22.6 µM in the assay on NCI/ADR-RES ovarian. In addition, the TGI was 9.45 µM and 13.2 µM with SF-539 CNS; 25 µM and 21.5 µM in the assay with HCT-116 colon. The GI50 was 2.11 µM with OVCAR-5 ovarian; 11.5 µM in the assay with SNB-19 CNS; 2.19 µM in the assay on HCC-2998 colon; 2.11 µM in the assay with SK-MEL-2 melanoma; 3.64 µM in the assay with SF-539 CNS; 9.87 µM with HCT-116 colon.
As to `Cc1cccc(/C=C/c2c(C(=O)/C=C/c3ccccc3)c(C)nc3ccccc23)c1`, the GI50 in the assay with T-47D breast was 1.29 µM; in the assay with OVCAR-5 ovarian, 1.98 µM; in the assay on SNB-19 CNS, 1.67 µM; with HCC-2998 colon it was 1.73 µM; in the assay on SK-MEL-2 melanoma it was 1.77 µM; in the assay on NCI/ADR-RES ovarian, 1.85 µM. Moreover, the values for the GI50 with CAKI-1 renal, in the assay with SF-539 CNS and in the assay with EKVX NSCLC were 1.29 µM, 1.71 µM and 1.75 µM, respectively. For the same compound, the TGI was found to be 3.66 µM in the assay with T-47D breast; 3.56 µM with OVCAR-5 ovarian; 3.04 µM in the assay with SNB-19 CNS; 3.49 µM in the assay on HCC-2998 colon; 3.63 µM with SK-MEL-2 melanoma; 4.65 µM in the assay on NCI/ADR-RES ovarian. The TGI in the assay on CAKI-1 renal came to 2.59 µM; with SF-539 CNS, 3.12 µM; with EKVX NSCLC, 3.26 µM.
Turning to `COc1ccc(C(=S)N2CCN(c3cccc(C)c3)CC2)cc1OC`, the GI50 was 4.33 µM in the assay on T-47D breast; greater than 100 µM in the assay with OVCAR-5 ovarian; 6.61 µM in the assay with SNB-19 CNS; 5.41 µM in the assay on HCC-2998 colon; 47.5 µM with SK-MEL-2 melanoma; 3.21 µM with CAKI-1 renal. In addition, the GI50 is 5.1 µM in the assay on SF-539 CNS, 3.47 µM in the assay with HCT-116 colon and 7.05 µM with EKVX NSCLC. Also, the TGI in the assay on T-47D breast, with OVCAR-5 ovarian, in the assay on SNB-19 CNS, with HCC-2998 colon, in the assay with SK-MEL-2 melanoma and in the assay on CAKI-1 renal was greater than 100 µM each time. Further, the TGI in the assay on SF-539 CNS, in the assay with HCT-116 colon and in the assay with EKVX NSCLC was greater than 100 µM in each case.
